{"source": "paper PMC9652372", "about": "“Glycolytic flux control by drugging phosphoglycolate phosphatase” (Nature Communications, 2022)", "key": {"HT1080 cells [1]": {"tested_on": "HT1080 cells", "assay": "Cell viability assay (AquaBluer)", "assay_type": "cell-based, human", "description": "Cell viability was assessed using AquaBluer according to the manufacturer’s recommendations (MultiTarget Pharmaceuticals, LLC). Fluorescence (excitation: 540 nm; emission: 590 nm) was analyzed on a Clariostar microplater reader."}, "HT1080 cells [2]": {"tested_on": "HT1080 cells", "assay": "Cell proliferation assay (EdU incorporation)", "assay_type": "cell-based, human", "quoted_text": "Parental HT1080 cells or the indicated CRISPR/Cas9-engineered control (PGP-WT) or PGP-KO cells were grown in complete DMEM. For the expression of PGP-WT or PGP-P127E, cells were transfected with either the pcDNA3 empty vector control or the indicated constructs in pcDNA3 using X-tremeGENE (Roche/Merck), according to the manufacturer’s instructions. […] To assess DNA synthesis, cells were labeled for 2.5 h with 10 μM 5-ethynyl-2'-deoxyuridine (EdU), fixed and permeabilized according to the manufacturer’s recommendations (Click-iT EdU Alexa Fluor 488 imaging kit, Invitrogen/Thermo Fisher). Cells were counterstained with 4′,6-diamidine-2-phenylindole (DAPI), embedded with Fluoromount-G (Thermo Fisher), and imaged on a Nikon TE Eclipse epifluorescence microscope equipped with a 4 × objective and NIS elements software AR 5.02.00. EdU and/or DAPI-positive cells were analyzed using the ImagePro-Plus software version 7.0 (Media Cybernetics). Statistical significance was assessed using GraphPad Prism 9.4.1 software."}, "PGP^S71R": {"target": "T1, PGP^S71R (Mus musculus, UniProt Q8CHP8, S71R)", "T1 sequence (Q8CHP8 1-321 S71R)": "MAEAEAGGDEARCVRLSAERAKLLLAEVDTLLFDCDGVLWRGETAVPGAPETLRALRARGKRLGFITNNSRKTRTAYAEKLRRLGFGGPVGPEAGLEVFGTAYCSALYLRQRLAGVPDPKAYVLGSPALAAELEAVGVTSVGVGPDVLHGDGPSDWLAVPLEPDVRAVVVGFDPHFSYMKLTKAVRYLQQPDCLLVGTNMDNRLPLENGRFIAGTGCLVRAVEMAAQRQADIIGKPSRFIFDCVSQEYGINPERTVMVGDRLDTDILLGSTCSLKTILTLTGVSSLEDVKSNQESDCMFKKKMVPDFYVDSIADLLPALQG", "conditions": "read-out: enzyme activity in presence of CP1 relative to DMSO control (1), mPGP-S71R, Exp #1-#3"}, "murine PGP": {"target": "T2, murine PGP (Mus musculus, UniProt Q8CHP8)", "T2 sequence (Q8CHP8 1-321)": "T1 sequence (Q8CHP8 1-321 S71R) with R71S", "assay": "IC50 determination, murine PGP, 4-phosphoerythronate (4PE) dephosphorylation", "conditions": "for M.m PGP on 4-Phosphoerythronate: activity, control = 100"}, "NANP/HDHD4": {"target": "T3, NANP/HDHD4 (Mus musculus, UniProt Q9CPT3)", "T3 construct": "made in house; host or cells: Escherichia coli BL21 (DE3), pETM11 (cDNA from Origene #MR203153)", "T3 sequence (Q9CPT3 1-248)": "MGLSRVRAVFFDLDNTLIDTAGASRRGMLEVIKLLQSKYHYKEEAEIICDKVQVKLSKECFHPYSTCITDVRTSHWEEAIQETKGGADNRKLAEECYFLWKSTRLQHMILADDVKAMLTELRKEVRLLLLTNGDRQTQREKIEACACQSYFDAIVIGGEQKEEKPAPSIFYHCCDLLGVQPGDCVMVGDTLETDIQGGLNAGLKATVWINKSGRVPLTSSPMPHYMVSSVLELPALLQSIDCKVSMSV", "assay": "In vitro phosphatase activity assay, NANP/HDHD4 (6-phosphogluconate)", "assay_type": "biochemical, murine", "conditions": "NANP activity on 6-phosphogluconate", "from_the_text": "The following phosphatase constructs (in pCMV6) were purchased from Origene: murine LHPP (NM_029609; catalog #MC211738), murine LPIN1, transcript variant 2 (NM_015763, #MC204460), murine MDP1 (NM_023397, #MR201315), murine […]_026086, #MR203153), murine NT5C (NM_015807, #MR202028), human NT5M (NM_020201, #RC207737), murine PNKP (NM_021549, #MR207938), and murine PSPH (NM_133900, #MR202626). Purified human NT5C1A (NM_032526, #TP324617) and purified human PHOSPHO1 (NM_178500, #TP314434) were from Origene. The murine PHOSPHO2 construct (in pFLCI) was from Source BioScience (clone ID: I420023L04). Calf intestinal alkaline phosphatase (CIP) was from NEB. Purified, recombinant human calcineurin (PP2B) and human PTP1B (residues 1-322) were from Millipore (#207005 or #539736, respectively). […] The 3'-P-oligonucleotide 5'-[NT]^3-]-3' was used as a PNKP substrate. […] Data were analyzed with GraphPad Prism 7.04. […] (c) Upper panel, purity of the tested, recombinant phosphatases (10 μg of protein/lane). A Coomassie Blue-stained gel is shown. Tested enzymes that are not included in this panel were obtained commercially. Lower panel , Western blots showing the overexpression of the myc-tagged cytosolic 5', 3'-nucleotidase NT5C and mitochondrial 5', 3'-nucleotidase NT5M in HEK293 cells (uncropped blots in Source Data). […] Error bars not shown are hidden by the symbols. […]"}}, "note": "Numbering of substitutions follows the chain as printed. Where “and” joins values, the source holds several entries; their conditions need not be identical. Identical values can stand only once."}
{"compound": "O=C(Nc1ccccc1C(=O)O)c1ccc(Oc2ccc(C(=O)Nc3ccccc3C(=O)O)cc2)cc1", "note": "[CP1]", "values": [{"measurement": "fluorescence intensity", "setting": "HT1080 cells [1]; CP1 10µM", "result": "73536.5 arbitrary units and 54985.5 arbitrary units and 58790.8 arbitrary units"}, {"measurement": "fluorescence intensity", "setting": "HT1080 cells [1]; CP1 33 µM", "result": "67669 arbitrary units and 60068 arbitrary units and 61386.5 arbitrary units"}, {"measurement": "fluorescence intensity", "setting": "HT1080 cells [1]; CP1 100 µM", "result": "68775 arbitrary units and 63101.8 arbitrary units and 70832.2 arbitrary units"}, {"measurement": "fluorescence intensity", "setting": "HT1080 cells [1]; CP1 200 µM", "result": "68392.2 arbitrary units and 53769.5 arbitrary units"}, {"measurement": "cytotoxicity", "setting": "HT1080 cells [1]; HT1080 cells, 100 µM, 24 h", "result": "not cytotoxic"}, {"measurement": "Edu-positive/DAPI-positive cells", "setting": "HT1080 cells [2]; KO C2 CP1 (S)", "result": "47.70% and 42.53% and 47.97%"}, {"measurement": "Edu-positive/DAPI-positive cells", "setting": "HT1080 cells [2]; WT D5 CP1 (S)", "result": "47.76% and 46.38% and 44.69%"}, {"measurement": "Edu-positive/DAPI-positive cells", "setting": "HT1080 cells [2]; WT D5 EV CP1 (L)", "result": "8.23% and 14.09% and 6.30%"}, {"measurement": "remaining activity at 39.81 µM", "setting": "PGP^S71R; CP1 log[M] -4.40", "result": 25, "unit": "%"}, {"measurement": "remaining activity at 19.95 µM", "setting": "PGP^S71R; CP1 log[M] -4.70", "result": 38, "unit": "%"}, {"measurement": "remaining activity at 10 µM", "setting": "PGP^S71R; CP1 log[M] -5.00", "result": 50, "unit": "%"}, {"measurement": "remaining activity at 5.012 µM", "setting": "PGP^S71R; CP1 log[M] -5.30", "result": 68, "unit": "%"}, {"measurement": "remaining activity at 2.512 µM", "setting": "PGP^S71R; CP1 log[M] -5.60", "result": 81, "unit": "%"}, {"measurement": "remaining activity at 0.631 µM", "setting": "PGP^S71R; CP1 log[M] -6.20", "result": 95, "unit": "%"}, {"measurement": "remaining activity at […]", "setting": "PGP^S71R; CP1 log[M] -6.51", "result": 100, "unit": "%"}, {"measurement": "remaining activity at 0.1549 µM", "setting": "PGP^S71R; CP1 log[M] -6.81", "result": 92, "unit": "%"}, {"measurement": "IC50", "setting": "murine PGP", "result": "440 ± 60", "unit": "nM"}, {"measurement": "M.m PGP on 4-Phosphoerythronate", "setting": "murine PGP; CP1 log[M] -5.34679", "result": "4.5082 and 7.8838 and 6.1475"}, {"measurement": "M.m PGP on 4-Phosphoerythronate", "setting": "murine PGP; CP1 log[M] -5.94885", "result": "24.5902 and 29.0456 and 23.7705"}, {"measurement": "M.m PGP on 4-Phosphoerythronate", "setting": "murine PGP; CP1 log[M] -6.24988", "result": "43.8525 and 48.1328 and 39.3443"}, {"measurement": "M.m PGP on 4-Phosphoerythronate", "setting": "murine PGP; CP1 log[M] -6.55091", "result": "54.0984 and 64.3154 and 65.9836"}, {"measurement": "M.m PGP on 4-Phosphoerythronate", "setting": "murine PGP; CP1 log[M] -6.85194", "result": "70.4918 and 82.5726 and 78.6885"}]}
{"compound": "COc1ccc(C(=O)Nc2ccc(Cc3ccc(NC(=O)c4ccc(OC)c(OC)c4)c(C(=O)O)c3)cc2C(=O)O)cc1OC", "note": "[CP2]", "values": [{"measurement": "IC50", "setting": "NANP/HDHD4", "result": "~1000", "unit": "nM"}]}
